Literature values, collected in patent US10806826B2, “Bone graft substitute containing a temporary contrast agent and a method of generating such and a method of use thereof” (BACTERIN INTERNATIONAL, INC., priority 2013, dated 2020).
Read-outs that look alike come from different tables or passages of the source.

What was measured:
[1] = intravenous
[2] = intravascular
[3] = oral, dosage 2-12 mL/kg

## CC(=O)N(CC(O)CO)c1c(I)c(C(=O)NCC(O)CO)c(I)c(C(=O)NCC(O)CO)c1I (stereo not shown) [Iohexol]
[1]; dosage varies by imaging needs
  Clearance/Half-life (t1/2): t1/2 = 30-60 minutes
[2]; dosage 500-1500 mgl/kg
  Clearance: excreted within 24 hours: ~90% excreted

## FC1(F)C(F)(F)C(F)(F)C2(F)C(F)(F)C(F)(F)C(F)(F)C(F)(F)C2(F)C1(F)F (stereo not shown) [Perfluorodecalin]
[1]
  Clearance/Half-life (t1/2): 140 h

## FC(F)(F)C(F)(F)C(F)(F)C(F)(F)C(F)(F)C(F)(F)C(F)(F)C(F)(F)Br [Perfluorooctyl bromide, perfluorooctyl bromide]
[3]
  Clearance: excreted within 24 hours: >95% excreted
[2]; dosage 1.2 g/kg
  Clearance/Half-life (t1/2): 9.4 h
[2]; dosage 1.8 g/kg
  Clearance/Half-life (t1/2): t1/2 = 6.1 hours

## FC(F)(F)C(F)(F)C(F)(F)N(C(F)(F)C(F)(F)C(F)(F)F)C(F)(F)C(F)(F)C(F)(F)F [Perfluorotripropylamine]
[1]
  Clearance/Half-life (t1/2): 1510 h
